Laboratory results published in ChEMBL document CHEMBL1151045, “Synthesis and evaluation of the anticonvulsant activity of a series of 2-amino-1-phenyl-1-propanols derived from the metabolites of the antidepressant bupropion” (1997).
“And” between values parts separate entries of the source, which are not always exact repeats. Equal values may be shown once. The source made the active and inactive calls. The rule behind the calls is not given here.

Test system: Mus musculus
Experiment: Anticonvulsant activity of compound was tested in mice after intraperitoneal administration in Maximal electroshock assay (MES); Inactive at 40 mg/kg dose
Assay type: functional, organism-based
Design: dose 40 mg/kg
Details: not given

Q: With C[C@H](NC(C)(C)C)[C@H](O)c1cccc([N+](=O)[O-])c1 as the compound, how does the ED50 read?
A: inactive

Q: How did the ED50 turn out when Cc1ccc([C@@H](O)[C@H](C)NC(C)(C)C)cc1 was run?
A: inactive

Q: How did the ED50 turn out when C[C@@H](NC(C)(C)C)[C@H](O)c1cccc([N+](=O)[O-])c1 was run?
A: inactive

Test system: Mus musculus
Experiment: Anticonvulsant activity of compound was tested in mice after intraperitoneal administration in Maximal electroshock assay (MES); Inactive at 60 mg/kg dose
Assay type: functional, organism-based
Design: dose 60 mg/kg
Details: not given

Q: With C[C@H](N)[C@H](O)c1cccc(Cl)c1 as the compound, how does the ED50 read?
A: inactive

Test system: Mus musculus
Experiment: Anticonvulsant activity of compound was tested in mice after intraperitoneal administration in Maximal electroshock assay (MES); Inactive at 30 mg/kg dose
Assay type: functional, organism-based
Design: dose 30 mg/kg
Details: not given

Q: How did the ED50 turn out when C[C@H](NC(C)(C)CO)[C@H](O)c1cccc(Cl)c1 was run?
A: inactive

Test system: Mus musculus
Experiment: Anticonvulsant activity of compound was tested in mice after intraperitoneal administration in Maximal electroshock assay (MES); Inactive at 13 mg/kg dose
Assay type: functional, organism-based
Design: dose 13 mg/kg
Details: not given

Q: Which ED50 does the source give for CCCCN[C@H](C)[C@H](O)c1cccc(C(F)(F)F)c1 here?
A: inactive

Test system: Mus musculus
Experiment: Anticonvulsant activity measured in Maximal electroshock assay (MES), intraperitoneal administration
Assay type: functional
Details: not given

Q: For CC(NC(C)(C)C)[C@H](O)c1ccccc1 (single isomer, unassigned), which ED50 is on record?
A: 25 mg/kg

Q: For CC(NC(C)(C)C)C(O)c1cccc(C(F)(F)F)c1 (racemic; form 1), which ED50 is on record?
A: 16 mg/kg

Q: How did the ED50 turn out when C[C@H](NC(C)(C)C)[C@H](O)c1cccc(Cl)c1 [ERYTHRO-HYDROBUPROPION] was run?
A: 28 mg/kg

Q: Which ED50 does the source give for C[C@@H](NC(C)(C)C)[C@H](O)c1cccc(C(F)(F)F)c1 here?
A: 17 mg/kg and 22 mg/kg

Q: With C[C@@H](NC(C)(C)C)[C@H](O)c1cccc(Cl)c1 [ERYTHRO-HYDROBUPROPION] as the compound, how does the ED50 read?
A: 11 mg/kg

Q: CC(NC(C)(C)C)C(O)c1cccc(Cl)c1 (racemic; form 2) [ERYTHRO-HYDROBUPROPION] was tested. Which ED50 did it give?
A: 26 mg/kg

Q: CC(NC(C)(C)C)C(O)c1cccc(Cl)c1 (racemic; form 1) [ERYTHRO-HYDROBUPROPION] was tested. Which ED50 did it give?
A: 14 mg/kg

Same assay, conditions: Mus musculus, ip; read-out: ED50

Q: With CC(NC(C)(C)C)C(O)c1cccc(C(F)(F)F)c1 (racemic; form 2) as the compound, how does the ED50 read?
A: 25 mg/kg

Q: CC(C)N[C@H](C)[C@H](O)c1cccc(C(F)(F)F)c1 was tested. Which ED50 did it give?
A: 40 mg/kg

Q: With CCC[C@H](NC(C)(C)C)[C@H](O)c1cccc(C(F)(F)F)c1 as the compound, how does the ED50 read?
A: 31 mg/kg

Q: Which ED50 does the source give for CC[C@@H](NC(C)(C)C)[C@H](O)c1cccc(Cl)c1 here?
A: 15 mg/kg

Q: For CCC(C)N[C@H](C)[C@H](O)c1cccc(C(F)(F)F)c1 (some centres undefined), which ED50 is on record?
A: 31 mg/kg

Q: How did the ED50 turn out when C[C@@H](NC(C)(C)C)[C@H](O)c1ccccc1 was run?
A: 14 mg/kg

Q: How did the ED50 turn out when CCC(C)(C)N[C@@H](C)[C@H](O)c1cccc(C(F)(F)F)c1 was run?
A: 28 mg/kg

Q: Which ED50 does the source give for CCC[C@H](NC(C)(C)C)[C@H](O)c1cccc(Cl)c1 here?
A: 31 mg/kg

Q: With O=C1NC(=O)C(c2ccccc2)(c2ccccc2)N1 [PHENYTOIN] as the compound, how does the ED50 read?
A: 8.5 mg/kg

Q: Which ED50 does the source give for CCC(C)(C)N[C@@H](C)[C@H](O)c1cccc(Cl)c1 here?
A: 23 mg/kg

Q: For C[C@@H](NC(C)(C)C)[C@H](O)c1ccc(Cl)c(Cl)c1, which ED50 is on record?
A: 13 mg/kg

Q: With CC[C@H](NC(C)(C)C)[C@H](O)c1cccc(C(F)(F)F)c1 as the compound, how does the ED50 read?
A: 40 mg/kg

Q: CC[C@H](NC(C)(C)C)[C@H](O)c1cccc(Cl)c1 was tested. Which ED50 did it give?
A: 26 mg/kg

Q: Which ED50 does the source give for Cc1ccc([C@@H](O)[C@@H](C)NC(C)(C)C)cc1 here?
A: 33 mg/kg

Q: How did the ED50 turn out when C[C@H](NC(C)(C)C)[C@H](O)c1ccc(Cl)cc1 was run?
A: 25 mg/kg

Q: With CCC(C)(C)N[C@H](C)[C@H](O)c1cccc(C(F)(F)F)c1 as the compound, how does the ED50 read?
A: 18 mg/kg

Q: CCC(C)(C)N[C@H](C)[C@H](O)c1cccc(Cl)c1 was tested. Which ED50 did it give?
A: 11 mg/kg

Q: With C[C@@H](NC(C)(C)C)[C@H](O)c1ccc(Cl)cc1 as the compound, how does the ED50 read?
A: 29 mg/kg

Q: With CC(C)N[C@@H](C)[C@H](O)c1cccc(Cl)c1 as the compound, how does the ED50 read?
A: 20 mg/kg

Q: How did the ED50 turn out when C[C@H](NC(C)(C)C)[C@H](O)c1ccc(Cl)c(Cl)c1 was run?
A: 31 mg/kg

Q: With CC[C@@H](NC(C)(C)C)[C@H](O)c1cccc(C(F)(F)F)c1 as the compound, how does the ED50 read?
A: 31 mg/kg

Q: With C[C@H](NC(C)(C)C)[C@H](O)c1cccc(Br)c1 as the compound, how does the ED50 read?
A: 16 mg/kg

Q: For C[C@@H](NC(C)(C)C)[C@H](O)c1cccc(Br)c1, which ED50 is on record?
A: 11 mg/kg

Q: With C[C@@H](NC1CCCCC1)[C@H](O)c1cccc(Cl)c1 as the compound, how does the ED50 read?
A: 13 mg/kg

Q: With CC(C)(C)NCC(O)c1cccc(Cl)c1 (centres undefined) as the compound, how does the ED50 read?
A: 28 mg/kg

Test system: Mus musculus
Experiment: Anticonvulsant activity of compound was tested in mice after intraperitoneal administration in Maximal electroshock assay (MES); Inactive at 70 mg/kg dose
Assay type: functional, organism-based
Design: dose 70 mg/kg
Details: not given

Q: With COc1ccc([C@@H](O)[C@H](C)NC(C)(C)C)cc1 as the compound, how does the ED50 read?
A: inactive
